Activity calls are given as the source filed them. No cut-off for these calls is given here.
Key:
[1] = system: Escherichia coli; test: Potentiation of TPP-induced antibacterial activity against wild type Escherichia coli BW25113 assessed as TPP MIC at 256 ug/ml incubated for 18 hrs under aerobic condition by checkerboard titration assay (reference value: 1024 ug/ml); type: functional; settings: dose 256 µg/ml
[2] = system: Escherichia coli; test: Potentiation of rifampicin-induced antibacterial activity against wild type Escherichia coli BW25113 assessed as rifampicin MIC at 256 ug/ml incubated for 18 hrs under aerobic condition by checkerboard titration assay (reference value: 16 ug/ml); type: functional; settings: dose 256 µg/ml
[3] = system: Escherichia coli; test: Potentiation of erythromycin-induced antibacterial activity against AcrB deficient Escherichia coli BW25113 assessed as erythromycin MIC at 256 ug/ml incubated for 18 hrs under aerobic condition by checkerboard titration assay (reference value: 32 ug/ml); type: functional; settings: dose 256 µg/ml
[4] = system: Escherichia coli; test: Potentiation of rifampicin-induced antibacterial activity against wild type Escherichia coli BW25113 assessed as rifampicin MIC at 128 ug/ml incubated for 18 hrs under aerobic condition by checkerboard titration assay (reference value: 16 ug/ml); type: functional; settings: dose 128 µg/ml
[5] = system: Cell membrane; test: Induction of outer membrane permeabilization in wild type Escherichia coli BW25113 assessed as increase in nitrocefin hydrolysis at 512 ug/ml measured for 30 mins in presence of CCCP by spectrophotometry analysis; type: subcellular; settings: dose 512.0 µg/ml
[6] = system: Escherichia coli; test: Potentiation of chloramphenicol-induced antibacterial activity against AcrB deficient Escherichia coli BW25113 assessed as chloramphenicol MIC at 256 ug/ml incubated for 18 hrs under aerobic condition by checkerboard titration assay (reference value: 2 ug/ml); type: functional; settings: dose 256 µg/ml
[7] = system: Escherichia coli; test: Antibacterial activity against Wild type Escherichia coli BW25113 assessed as inhibition of AcrB efflux pump by mesuring the glucose-induced nile red efflux at 200 uM preincubated with CCCP for 15 mins followed by compound addition after 15 mins nile red added and incubated for 3 hrs in shaker by fluorimetric analysis; type: functional, organism-based; settings: time 195.0 min
[8] = system: Escherichia coli; test: Potentiation of erythromycin-induced antibacterial activity against wild type Escherichia coli BW25113 assessed as erythromycin MIC at 128 ug/ml incubated for 18 hrs under aerobic condition by checkerboard titration assay (reference value: 128 ug/ml); type: functional; settings: dose 128 µg/ml
[9] = system: Escherichia coli; test: Potentiation of erythromycin-induced antibacterial activity against wild type Escherichia coli BW25113 assessed as erythromycin MIC at 256 ug/ml incubated for 18 hrs under aerobic condition by checkerboard titration assay (reference value: 128 ug/ml); type: functional; settings: dose 256 µg/ml
[10] = system: Escherichia coli; test: Potentiation of TPP-induced antibacterial activity against wild type Escherichia coli BW25113 assessed as TPP MIC at 128 ug/ml incubated for 18 hrs under aerobic condition by checkerboard titration assay (reference value: 1024 ug/ml); type: functional; settings: dose 128 µg/ml
[11] = system: Escherichia coli; test: Potentiation of chloramphenicol-induced antibacterial activity against wild type Escherichia coli BW25113 assessed as chloramphenicol MIC at 256 ug/ml incubated for 18 hrs under aerobic condition by checkerboard titration assay (reference value: 16 ug/ml); type: functional; settings: dose 256 µg/ml
[12] = system: Escherichia coli; test: Potentiation of chloramphenicol-induced antibacterial activity against wild type Escherichia coli BW25113 assessed as chloramphenicol MIC at 128 ug/ml incubated for 18 hrs under aerobic condition by checkerboard titration assay (reference value: 16 ug/ml); type: functional; settings: dose 128 µg/ml
[13] = system: Escherichia coli; test: Potentiation of TPP-induced antibacterial activity against AcrB deficient Escherichia coli BW25113 assessed as TPP MIC at 256 ug/ml incubated for 18 hrs under aerobic condition by checkerboard titration assay (reference value: 256 ug/ml); type: functional; settings: dose 256 µg/ml
[14] = system: Escherichia coli; test: Potentiation of erythromycin-induced antibacterial activity against AcrB deficient Escherichia coli BW25113 assessed as erythromycin MIC at 128 ug/ml incubated for 18 hrs under aerobic condition by checkerboard titration assay (reference value: 32 ug/ml); type: functional; settings: dose 128 µg/ml
[15] = system: Cell membrane; test: Disruption of inner membrane potential in wild type Escherichia coli BW25113 at 512 ug/ml preincubated for 10 mins followed by glucose stimulation and CCCP addition by DiOC2 probe based fluorimetric analysis; type: subcellular; settings: dose 512.0 µg/ml
[16] = system: Escherichia coli; test: Potentiation of chloramphenicol-induced antibacterial activity against wild type Escherichia coli BW25113 assessed as fold reduction in chloramphenicol MIC at 256 ug/ml incubated for 18 hrs under aerobic condition by checkerboard titration assay relative to chloramphenicol MIC alone; type: functional; settings: dose 256 µg/ml
[17] = system: Escherichia coli; test: Antibacterial activity against Wild type Escherichia coli BW25113 assessed as inhibition of AcrB efflux pump by mesuring the glucose-induced nile red efflux at 500 uM preincubated with CCCP for 15 mins followed by compound addition after 15 mins nile red added and incubated for 3 hrs in shaker by fluorimetric analysis; type: functional, organism-based; settings: time 195.0 min
[18] = system: Escherichia coli; test: Potentiation of chloramphenicol-induced antibacterial activity against AcrB deficient Escherichia coli BW25113 assessed as chloramphenicol MIC at 128 ug/ml incubated for 18 hrs under aerobic condition by checkerboard titration assay (reference value: 2 ug/ml); type: functional; settings: dose 128 µg/ml
[19] = system: Escherichia coli; test: Potentiation of TPP-induced antibacterial activity against AcrB deficient Escherichia coli BW25113 assessed as TPP MIC at 128 ug/ml incubated for 18 hrs under aerobic condition by checkerboard titration assay (reference value: 256 ug/ml); type: functional; settings: dose 128 µg/ml
[20] = system: Escherichia coli; test: Potentiation of chloramphenicol-induced antibacterial activity against wild type Escherichia coli BW25113 assessed as fold reduction in chloramphenicol MIC at 128 ug/ml incubated for 18 hrs under aerobic condition by checkerboard titration assay relative to chloramphenicol MIC alone; type: functional; settings: dose 128 µg/ml
[21] = system: Escherichia coli; test: Potentiation of erythromycin-induced antibacterial activity against wild type Escherichia coli BW25113 assessed as fold reduction in erythromycin MIC at 128 ug/ml incubated for 18 hrs under aerobic condition by checkerboard titration assay relative to erythromycin MIC alone; type: functional; settings: dose 128 µg/ml

Row | SMILES | MIC [1] [µg/mL] | MIC [2] [µg/mL] | MIC [3] [µg/mL] | MIC [4] [µg/mL] | Activity [5] | MIC [6] [µg/mL] | MIC [8] [µg/mL] | MIC [9] [µg/mL] | MIC [10] [µg/mL] | MIC [11] [µg/mL] | MIC [12] [µg/mL] | MIC [13] [µg/mL] | Activity [15] | Activity [17] | further results
1 | COc1ccc(CNC(=O)c2cc(OCc3ccccc3)c3ccccc3c2)cc1 | 1020 | 4 | 32 | 16 | Active | 2 | 128 | 128 | 1020 | 4 | 8 |  |  |  | Activity [7]: Active
2 | C#CCNC(=O)c1cc(OCCC(C)C)c2ccccc2c1 | 256 | 16 | 32 | 16 |  | 2 | 128 | 128 | 1020 | 2 | 8 | 256 | Active | inactive | MIC [14]: 32 µg/mL; fold change (FC) [16]: 8; MIC [18]: 2 µg/mL; MIC [19]: 256 µg/mL
3 | CCCNC(=O)c1cc(OCc2ccccc2)c2ccccc2c1 | 1020 | 8 |  | 16 | inactive | 2 | 128 | 128 | 1020 | 4 | 16 |  | Active |  | 
4 | CC(C)CCOc1cc(C(=O)NCc2ccco2)cc2ccccc12 | 1020 | 16 | 32 | 16 | inactive | 2 | 64 | 32 | 1020 | 4 | 8 | 256 | Active | Active | 
5 | CC(C)CCOc1cc(C(=O)NCc2ccccc2Cl)cc2ccccc12 | 1020 | 16 | 32 | 16 | inactive | 2 | 128 | 128 | 1020 | 2 | 4 | 256 | Active | Active | fold change (FC) [20]: 4; fold change (FC) [16]: 8; fold change (FC) [21]: 4
6 | NC(=O)c1cc(OCCSc2nc3ccccc3[nH]2)c2ccccc2c1 | 256 | 16 | 32 | 16 | inactive | 2 | 128 | 128 | 1020 | 16 | 16 | 256 | inactive | Active | 
7 | CC(C)CCOc1cc(C(=O)Nc2ccccc2C(F)(F)F)cc2ccccc12 | 1020 | 16 | 32 | 16 | inactive | 2 | 64 | 32 | 1020 | 4 | 8 | 256 | inactive | Active | 
8 | CC(C)CCOc1cc(C(=O)NCc2ccccc2)cc2ccccc12 | 1020 | 8 | 32 | 16 | inactive | 1 | 64 | 32 | 1020 | 4 | 8 | 256 |  |  | 
9 | NC(=O)c1cc(OCCOc2ccccc2N)c2ccccc2c1 | 1020 | 16 | 32 | 16 | Active | 2 | 128 | 128 | 1020 | 4 | 8 | 256 | Active | Active | 
10 | NC(=O)c1cc(OCCN2CCN(c3ccccc3)CC2)c2ccccc2c1 | 512 | 16 | 32 | 16 | inactive | 2 | 128 | 128 | 1020 | 2 | 8 | 256 | inactive |  | fold change (FC) [16]: 8; Activity [7]: Active
11 | COc1ccc(CNC(=O)c2cc(OCCC(C)C)c3ccccc3c2)cc1 | 1020 | 16 | 32 | 16 |  | 2 | 64 | 32 | 1020 | 16 | 16 | 256 |  | inactive | 

From ChEMBL document CHEMBL4715814, “Design, synthesis and biological activity evaluation of novel 4-subtituted 2-naphthamide derivatives as AcrB inhibitors” (2018)
